One data set addresses T1, hM1 (Homo sapiens, UniProt P11229).
T1 construct: expressed in transfected cells; host or cells: CHO
T1 sequence (P11229 1-460): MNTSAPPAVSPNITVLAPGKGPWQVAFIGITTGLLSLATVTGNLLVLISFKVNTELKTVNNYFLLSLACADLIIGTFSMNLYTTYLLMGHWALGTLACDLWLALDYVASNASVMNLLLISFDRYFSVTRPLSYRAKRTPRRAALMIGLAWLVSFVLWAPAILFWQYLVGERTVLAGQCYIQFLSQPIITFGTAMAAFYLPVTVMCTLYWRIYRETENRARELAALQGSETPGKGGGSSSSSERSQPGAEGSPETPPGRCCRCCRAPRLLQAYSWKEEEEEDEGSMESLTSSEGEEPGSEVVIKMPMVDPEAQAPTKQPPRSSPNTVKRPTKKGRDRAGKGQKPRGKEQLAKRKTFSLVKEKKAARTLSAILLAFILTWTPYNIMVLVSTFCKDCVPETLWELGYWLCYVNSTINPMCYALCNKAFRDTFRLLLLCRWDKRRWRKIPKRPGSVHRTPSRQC
As to the kind of experiment: FLIPR intracellular calcium assay for modulator activity at the muscarinic M1 receptor in CHO human M1 cells. The class given is cell-based. How it is done:
The assay study the effect of several concentrations of test compounds on basal or acetylcholine-stimulated Ca^2+ levels using FLIPR.
The cell plate and the diluted compounds (1% DMSO final concentration) are placed on the platform of the FLIPR and the door closed. A signal test to check background fluorescence and basal fluorescence signal is performed. Laser intensity is adjusted if necessary. Two minutes preincubation with the diluted test compounds is provide to determine any agonist activity on the M1 receptor by comparison to 30 nM Acetylcholine control. In order to determine any modulator activity the diluted compounds were added to cells and after two minutes preincubation, the EC20 of acetylcholine is added followed by another two minutes preincubation before the measurement of intracellular Ca^2+ with a FLIPR (Molecular Devices).
In general terms: Calcium flux is commonly read through the fluorescence of an indicator in the cells.

In another data set the target is T2, GABA-A alpha5 (α5β3γ2) (Homo sapiens, UniProt P18507+P31644).
T2 construct: expressed in transfected cells; host or cells: HEK293 (transient transfection; membranes)
The data set can be described thus: GABA A radioligand binding assay, competition for [3H]flumazenil. The note with it: [3H]flumazenil 1 nM, HEK293 membranes. How it is done:
The ability of compounds present invention to bind to GABA A receptor subtypes was determined by competition for [^3H]flumazenil (85 Ci/mmol; Roche) binding to HEK293 cells expressing human (transiently transfected) receptors of composition α1β2γ2, and α5β3γ2.
Membrane preparation Cell pellets were suspended in Krebs-tris buffer (5 mM KCl, 1.25 mM CaCl2), 1.25 mM MgCl2, 120 mM NaCl, 15 mM Tris; pH 7.5; binding assay buffer), homogenized by polytron for ca. 20 sec on ice and centrifuged for 60 min at 4° C. (50000 g; Sorvall, rotor: SM24=20000 rpm). The cell pellets were resuspended in Krebs-tris buffer and homogenized by polytron for ca. 15 sec on ice. Protein was measured (Bradford method, Bio-Rad) and aliquots of 1 mL were prepared and stored at −80° C.
Radioligand binding assays were carried out in a volume of 200 uL (96-well plates) which contained 100 μL of cell membranes, [3H]flumazenil at a concentration of 1 nM for a1, a2, a3 subunits and 1 nM for a5 subunits and the test compound in the range of 3.16 μM to 0.1 μM. Nonspecific binding was defined by 10^−5 M diazepam and typically represented less than 5% of the total binding. […] After drying, filter-retained radioactivity was detected by liquid scintillation counting.
Ki values were calculated using Excel-Fit (Microsoft) and are the means of two determinations.

Another data set deals with GABA A. The data set can be described thus: Oocyte EP. Type of data set: cell-based. Particulars: at 1 μM.

Where two headings read alike, the source gives them in different places.

The IC50 is the concentration at which inhibition is half-maximal. What is called melting point is the temperature of the solid-liquid transition. In general, Ki refers to a measure of affinity in units of concentration, obtained from inhibition or displacement. Higher therefore signals a looser hold on the target.

As to `CC(=O)OC1C=C(c2ccccc2F)c2cc(Cl)ccc2NC1=S` (stereo not shown) [Example 14, [7-chloro-5-(2-fluorophenyl)-2-thioxo-1,3-dihydro-1-benzazepin-3-yl]acetate], the melting point fell in the range of 214 to 215 °C. The IC50 at hM1 (CHO human M1, with EC20 of acetylcholine, FLIPR, read-out: IC50 value hM1 (converted)) was 649 nM. With `CC(C)[C@@H]1N=C(c2ccccc2F)c2cc(Cl)ccc2NC1=S` [Example 5, (3S)-7-chloro-5-(2-fluorophenyl)-3-propan-2-yl-1,3-dihydro-1,4-benzodiazepine-2-thione], the IC50 at hM1 was found to be 80 nM. In addition, the Ki was over 36000 nM at GABA-A alpha5 (α5β3γ2) (GABA-A alpha 5 (second value, Ki implied), second value) and over 24000 nM on GABA-A alpha5 (α5β3γ2) (GABA-A alpha5: Ki). Also, in the data set with GABA A, the “Oocyte EP effect” value was “no effect”. Turning to `CC(C)[C@@H]1N=C(c2ccccc2F)c2ccc(Cl)cc2NC1=S` [Example 23, (3S)-8-chloro-5-(2-fluorophenyl)-3-isopropyl-1,3-dihydro-1,4-benzodiazepine-2-thione], the IC50 on hM1 was 399 nM.

As to `S=C1Nc2ccc(Cl)cc2C(c2ccccc2)=N[C@H]1Cc1ccccc1` (single isomer, unassigned) [Example 30], the IC50 at hM1 turned out to be 251 nM. Take `S=C1Nc2ccccc2C(c2ccccc2)=NC1Cc1ccc(Cl)c(Cl)c1` (stereo not shown) [Example 28, 3-[(3,4-Dichlorophenyl)methyl]-5-phenyl-1,3-dihydro-1,4-benzodiazepine-2-thione]: the IC50 at hM1 was 1670 nM.

For `CC(C)C1N=C(c2ccccc2)c2cc(Cl)ccc2NC1=S` (stereo not shown) [Example 15, 7-chloro-3-isopropyl-5-phenyl-1,3-dihydro-1,4-benzodiazepine-2-thione], the IC50 on hM1 is 64 nM.

(Values after patent US11021448B2, “1,3-dihydro-1,4-benzodiazepine-2-thiones for the treatment of CNS related diseases” (priority 2016, dated 2021).)
